Test results taken from ChEMBL document CHEMBL5236629, “Antioxidant and Neuroprotective Effects of the First Tryptophyllin Found in Snake Venom (Bothrops moojeni)” (J Nat Prod, 2022).
Active and inactive are the calls of the source. No cut-off for these calls is given here. Where a SMILES comes first, the peptide text is derived from it.

Columns and labels:
[1] = Hemolytic activity in human red blood cell assessed as cell membrane disruption at 12.5 to 400 ug/ml incubated for 1 hrs by microplate reader analysis; format: toxicity, cell-based; conditions: erythrocyte, dose 12.5-400 µg/ml
[2] = Antioxidant activity assessed as protection against AAPH-induced DNA degradation in to linear form incubated for 1 hrs by SYBR dye based electrophoresis; format: functional
[3] = Antioxidant activity assessed as trolox equivalent of AAPH radical scavenging activity preincubated for 15 mins followed by 10 sec incubation under shaking condition and measured every minute for 2 hrs by ORAC fluorescence based microplate reader analysis; format: functional; conditions: time 8110.0 sec
[4] = Cytotoxicity against human SK-N-BE(2) cells assessed as reduction in cell viability incubated for 24 hrs by MTT assay; format: toxicity, cell-based
N2a [5] = test: Antioxidant activity in arsenite-induced mouse Neuro2a cells assessed as reduction in Nrf2 protein level at 100 uM incubated for 3 hrs by Western blot analysis; format: functional, cell-based
SK-N-BE(2) [6] = test: Antioxidant acitivity against PMA-stimulated human SK-N-BE(2) cells assessed as reduction in PMA-stimulated RNS level at 50 uM incubated for 60 mins by DCFH-DA staining based flow cytometric analysis; format: functional, cell-based
[7] = Protection against AAPH-induced hemolysis in human RBC at 50 to 100 ug/ml preincubated with compound for 20 mins followed bu AAPH addition and measured after 3 hrs by spectrophotometric analysis relative to control; format: functional, Erythrocyte; conditions: dose 50-100 µg/ml; time 200 min; 3.333 h; at 50 to 100 µg/mL
Erythrocyte = test: Protection against AAPH-induced hemolysis in human RBC at 25 to 400 ug/ml preincubated with compound for 20 mins followed bu AAPH addition and measured after 3 hrs by spectrophotometric analysis; format: functional, cell-based; conditions: dose 25-400 µg/ml, time 200.0 min
[8] = Antioxidant activity assessed as trolox equivalent of ABTS radical scavenging activity measured for 6 mins; format: functional
SK-N-BE(2) [9] = test: Antioxidant acitivity against PMA-stimulated human SK-N-BE(2) cells assessed as reduction in PMA-stimulated ROS level at 50 to 100 uM incubated for 60 mins by DCFH-DA staining based flow cytometric analysis; format: functional, cell-based; conditions: dose 50-100 µM
N2a [10] = test: Antioxidant activity in arsenite-induced mouse Neuro2a cells assessed as increase in SOD level at 100 uM incubated for 3 hrs by Western blot analysis; format: functional, cell-based

CC[C@H](C)[C@H](NC(=O)[C@H](Cc1c[nH]c2ccccc12)NC(=O)[C@@H]1CCCN1C(=O)[C@@H](N)Cc1ccccc1)C(=O)N[C@H](C(=O)N[C@@H](CO)C(N)=O)[C@@H](C)CC (H-FPWIIS-NH2)
Activity [1]: Non-Toxic | Activity [2]: Active | Activity [3]: 674 µM/g | CC50 at 24 h [4]: 1730 µM | Activity (N2a [5]): Active | Activity (SK-N-BE(2) [6]): Active | Activity [7]: >75% | Activity (Erythrocyte): Active | Activity [8]: 796 µM/g | Activity (SK-N-BE(2) [9]): Active | Activity (N2a [10]): inactive
